Experimental data: US8192962B2, “Processes for detecting toxic substances” (Daikin Industries, Ltd., priority 2001, dated 2012)

System: Genes belonging to other category
Experiment: DNA chip mRNA expression in yeast, genes belonging to other category (Table 9)
Assay type: cell-based, Saccharomyces cerevisiae S288C
How it was run: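 Cells were grown at 25° C. in YPD, treated at logarithmic phase for 2 h with a chemical at a concentration inhibiting growth but not causing death, and compared with untreated cultures. Labeled cDNA was hybridized to a DNA chip carrying all yeast genes, and the expression ratio was taken from scanner fluorescence.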

`C=CC=O` [(14), acrolein] was tested, and the “The level of expressed mRNA in the presence of chemical substance/The level of expressed mRNA in the absence of chemical substance” value (yeast gene YIR024C) was 2.6, the “The level of expressed mRNA in the presence of chemical substance/The level of expressed mRNA in the absence of chemical substance” value (yeast gene YIR039C) was 1.9 and the “The level of expressed mRNA in the presence of chemical substance/The level of expressed mRNA in the absence of chemical substance” value (yeast gene YJL030W) was 2.1. The “The level of expressed mRNA in the presence of chemical substance/The level of expressed mRNA in the absence of chemical substance” value (yeast gene YJL035C) was 1.6, the “The level of expressed mRNA in the presence of chemical substance/The level of expressed mRNA in the absence of chemical substance” value (yeast gene YJL053W) was 1.3 and the “The level of expressed mRNA in the presence of chemical substance/The level of expressed mRNA in the absence of chemical substance” value (yeast gene YJL073W) was 1.1. For the same compound, the “The level of expressed mRNA in the presence of chemical substance/The level of expressed mRNA in the absence of chemical substance” value (yeast gene YJL089W) was 1.8, the “The level of expressed mRNA in the presence of chemical substance/The level of expressed mRNA in the absence of chemical substance” value (yeast gene YJL116C) was 2.6 and the “The level of expressed mRNA in the presence of chemical substance/The level of expressed mRNA in the absence of chemical substance” value (yeast gene YJL146W) was 1.5. The “The level of expressed mRNA in the presence of chemical substance/The level of expressed mRNA in the absence of chemical substance” value (yeast gene YJL164C) was 0.9, the “The level of expressed mRNA in the presence of chemical substance/The level of expressed mRNA in the absence of chemical substance” value (yeast gene YJL210W) was 0.9 and the “The level of expressed mRNA in the presence of chemical substance/The level of expressed mRNA in the absence of chemical substance” value (yeast gene YJR004C) was 0.7. The “The level of expressed mRNA in the presence of chemical substance/The level of expressed mRNA in the absence of chemical substance” value (yeast gene YJR086W) was 2.2, the “The level of expressed mRNA in the presence of chemical substance/The level of expressed mRNA in the absence of chemical substance” value (yeast gene YJR099W) was 2.1 and the “The level of expressed mRNA in the presence of chemical substance/The level of expressed mRNA in the absence of chemical substance” value (yeast gene YKL008C) was 0.8. The “The level of expressed mRNA in the presence of chemical substance/The level of expressed mRNA in the absence of chemical substance” value (yeast gene YKL013C) was 1.4, the “The level of expressed mRNA in the presence of chemical substance/The level of expressed mRNA in the absence of chemical substance” value (yeast gene YKL039W) was 0.8 and the “The level of expressed mRNA in the presence of chemical substance/The level of expressed mRNA in the absence of chemical substance” value (yeast gene YKL041W) was 1.3. The “The level of expressed mRNA in the presence of chemical substance/The level of expressed mRNA in the absence of chemical substance” value (yeast gene YKL070W) was 2.2, the “The level of expressed mRNA in the presence of chemical substance/The level of expressed mRNA in the absence of chemical substance” value (yeast gene YKL096W) was 0.5 and the “The level of expressed mRNA in the presence of chemical substance/The level of expressed mRNA in the absence of chemical substance” value (yeast gene YKL103C) was 2.0. For the same compound, the “The level of expressed mRNA in the presence of chemical substance/The level of expressed mRNA in the absence of chemical substance” value (yeast gene YKL117W) was 1.6, the “The level of expressed mRNA in the presence of chemical substance/The level of expressed mRNA in the absence of chemical substance” value (yeast gene YKL139W) was 1.0 and the “The level of expressed mRNA in the presence of chemical substance/The level of expressed mRNA in the absence of chemical substance” value (yeast gene YKL165C) was 0.8. The “The level of expressed mRNA in the presence of chemical substance/The level of expressed mRNA in the absence of chemical substance” value (yeast gene YKL193C) was 1.2, the “The level of expressed mRNA in the presence of chemical substance/The level of expressed mRNA in the absence of chemical substance” value (yeast gene YKL196C) was 2.5 and the “The level of expressed mRNA in the presence of chemical substance/The level of expressed mRNA in the absence of chemical substance” value (yeast gene YKR014C) was 1.8. The “The level of expressed mRNA in the presence of chemical substance/The level of expressed mRNA in the absence of chemical substance” value (yeast gene YKR098C) was 1.4, the “The level of expressed mRNA in the presence of chemical substance/The level of expressed mRNA in the absence of chemical substance” value (yeast gene YLR093C) was 1.3 and the “The level of expressed mRNA in the presence of chemical substance/The level of expressed mRNA in the absence of chemical substance” value (yeast gene YLR107W) was 1.6. The “The level of expressed mRNA in the presence of chemical substance/The level of expressed mRNA in the absence of chemical substance” value (yeast gene YLR118C) was 1.5, the “The level of expressed mRNA in the presence of chemical substance/The level of expressed mRNA in the absence of chemical substance” value (yeast gene YLR120C) was 0.8 and the “The level of expressed mRNA in the presence of chemical substance/The level of expressed mRNA in the absence of chemical substance” value (yeast gene YLR136C) was 0.7. The “The level of expressed mRNA in the presence of chemical substance/The level of expressed mRNA in the absence of chemical substance” value (yeast gene YLR178C) was 2.8, the “The level of expressed mRNA in the presence of chemical substance/The level of expressed mRNA in the absence of chemical substance” value (yeast gene YLR250W) was 2.5 and the “The level of expressed mRNA in the presence of chemical substance/The level of expressed mRNA in the absence of chemical substance” value (yeast gene YLR251W) was 1.3. For the same compound, the “The level of expressed mRNA in the presence of chemical substance/The level of expressed mRNA in the absence of chemical substance” value (yeast gene YLR266C) was 1.0, the “The level of expressed mRNA in the presence of chemical substance/The level of expressed mRNA in the absence of chemical substance” value (yeast gene YLR327C) was 1.5 and the “The level of expressed mRNA in the presence of chemical substance/The level of expressed mRNA in the absence of chemical substance” value (yeast gene YLR356W) was 2.2. For the same compound, the “The level of expressed mRNA in the presence of chemical substance/The level of expressed mRNA in the absence of chemical substance” value (yeast gene YLR362W) was 1.2, the “The level of expressed mRNA in the presence of chemical substance/The level of expressed mRNA in the absence of chemical substance” value (yeast gene YLR391W) was 0.5 and the “The level of expressed mRNA in the presence of chemical substance/The level of expressed mRNA in the absence of chemical substance” value (yeast gene YLR429W) was 0.7. The “The level of expressed mRNA in the presence of chemical substance/The level of expressed mRNA in the absence of chemical substance” value (yeast gene YML092C) was 1.6, the “The level of expressed mRNA in the presence of chemical substance/The level of expressed mRNA in the absence of chemical substance” value (yeast gene YMR004W) was 2.2 and the “The level of expressed mRNA in the presence of chemical substance/The level of expressed mRNA in the absence of chemical substance” value (yeast gene YMR027W) was 0.9. For the same compound, the “The level of expressed mRNA in the presence of chemical substance/The level of expressed mRNA in the absence of chemical substance” value (yeast gene YMR091C) was 1.5 and the “The level of expressed mRNA in the presence of chemical substance/The level of expressed mRNA in the absence of chemical substance” value (yeast gene YMR094W) was 2.8.
